In US5126483A, “1-phenylalkyl-3-phenylurea derivatives” (Mitsubishi Kasei Corporation, priority 1989, dated 1992):

Columns and labels:
[1] = tested on: cholesterol level in serum; experiment: Effect of reducing a lipid level in blood: serum cholesterol in hamsters fed 1% cholesterol / 0.5% cholic acid diet; type: in vivo, golden Syrian hamster; details: once a day for 5 days, relative to control group
Method: The effect of reducing a lipid level in blood by the action of the compounds according to the present invention was determined as follows:
Male golden Syrian hamsters weighing from 80 to 100 g were randomly divided into groups. The hamsters were first fed standard laboratory diets (solid feed MF-1 for mouse/rat/hamster, manufactured by Oriental Yeast Industries, KK) for 3 days. Then, they were fed the experimental diet containing 1% cholesterol and 0.5% cholic acid (manufactured by Oriental Yeast Industries, KK), ad libitum. At the same time, the compounds of the invention formulated in a shown dose (0.1-10 mg/10 ml water/kg) were administrated to the animals orally once a day at a determined time for 5 days. Water was administrated orally to the hamsters of control group in an amount of 10 ml per 1 kg of body weight. After five days of administrating the compounds, the animals were anesthetized with Pentobarbital Na (Nembutal injection, manufactured by Dainabbot) and three hours after the final administration of the test compound, a blood sample was taken from abdominal cava. The serum was separated from the sample by centrifuging.
The cholesterol level in the serum was determined by using a blood cholesterol measuring kit, Determina-TC5 manufactured by Kyowa Medix Co. The results are represented by percent inhibition (%) of cholesterol level in serum relative to that of the control group, and shown in the following Table 2.

[2] = target: acyl-CoA: cholesterol acyltransferase (ACAT); experiment: ACAT inhibitory action: cholesteryl-[14C] oleate formation in hamster microsomes; type: biochemical; details: radio-labelled oleoyl coenzyme A (14C)
Method: The ACAT inhibitory action of the compounds according to the present invention was measured as follows:
ACAT activity in the hamster microsomes was determined by measuring the rate of radio-active cholesteryl-[^14 C] oleate formation from cholesterol and radio-labelled oleoyl coenzyme A (^14 C) with or without test compound.
Calculations of IC50 value were made using data of the percent inhibition at each compound concentration.

[3] = Mesocricetus auratus, po, 120 h, 0.1 mg/kg, read-out: Percent inhibition of cholesterol in serum
[4] = Mesocricetus auratus, po, 120 h, read-out: Percent inhibition of cholesterol in serum

SMILES	inhibition in vivo at 1 mg/kg [1, 4]	also measured
CCCCCC(CNC(=O)Nc1c(C(C)C)cccc1C(C)C)c1cccc(OC)c1OC (single isomer, unassigned; (+)) [Example 50, (+)-1-(2-(2,3-dimethoxyphenyl)heptyl)-3-(2,6-diisopropylpehyl)urea]	–	inhibition in vivo at 0.1 mg/kg [1, 3]: 18%
CCCCCC(CNC(=O)Nc1c(C(C)C)cccc1C(C)C)c1cccc(OC)c1OC (single isomer, unassigned; (-)) [Example 51, (-)-1-(2-(2,3-dimethoxyphenyl)heptyl)-3-(2,6-diisopropylpheyl)urea]	–	Percent inhibition of cholesterol in serum ([1]; 0.1 mg/kg, oral): 25%
CCCCC(CNC(=O)Nc1c(C(C)C)cccc1C(C)C)c1ccccc1C (stereo not drawn) [Example 9]	19%	IC50 [2]: 4.9 nM
CCCCCC(CNC(=O)Nc1c(C(C)C)cccc1C(C)C)c1cccc(C)c1 (stereo not drawn) [Example 12]	43%	IC50 [2]: 26 nM
CCCCC(CNC(=O)Nc1c(C(C)C)cccc1C(C)C)c1cccc(CC)c1 (stereo not drawn) [Example 15]	36%	–
CCCCC(CNC(=O)Nc1c(C(C)C)cccc1C(C)C)c1ccc(C)cc1 (stereo not drawn) [Example 19]	36%	–
CCCCC(CNC(=O)Nc1c(C(C)C)cccc1C(C)C)c1ccc(C)c(C)c1C (stereo not drawn) [Example 24]	39%	–
CCCCCC(CNC(=O)Nc1c(C(C)C)cccc1C(C)C)c1cccc(OC)c1 (stereo not drawn) [Example 29]	36%	–
CCCCC(CNC(=O)Nc1c(C(C)C)cccc1C(C)C)c1cccc(OC)c1OC (stereo not drawn) [Example 32]	43%	–
CCCCCC(CNC(=O)Nc1c(C(C)C)cccc1C(C)C)c1cccc(OC)c1OC (stereo not drawn) [Example 33]	–	inhibition in vivo at 0.1 mg/kg [1, 3]: 24%; IC50 [2]: 16 nM
CCCCCCC(CNC(=O)Nc1c(C(C)C)cccc1C(C)C)c1ccc(OC)c(OC)c1 (stereo not drawn) [Example 36]	26%	–
CCCCC(CNC(=O)Nc1c(C(C)C)cccc1C(C)C)c1cccc(Cl)c1 (stereo not drawn) [Example 40]	38%	IC50 [2]: 31 nM
CCCCC(CNC(=O)Nc1c(C(C)C)cccc1C(C)C)Cc1ccc(Cl)cc1 (stereo not drawn) [Example 49]	–	inhibition in vivo at 10 mg/kg ([1]; Mesocricetus auratus, po, 120 h, 10 mg/kg (footnote 2), read-out: Percent inhibition of cholesterol in serum): 33%
CC(C)c1cccc(C(C)C)c1NC(=O)NCC(c1ccccc1)C(C)(C)C (stereo not drawn) [compound 1, 1-(3,3-dimethyl-2-phenylbutyl)-3-(2,6-diisopropyl-phenyl)urea, reference compound]	–	inhibition in vivo at 5 mg/kg ([1]; Mesocricetus auratus, po, 120 h, 5 mg/kg, read-out: Percent inhibition of cholesterol in serum): 5%
